In patent publication US10039753B2, “Imidazo[4,5-c]quinoline and imidazo[4,5-c][1,5]naphthyridine derivatives as LRRK2 inhibitors” (Pfizer Inc., priority 2015, dated 2018) one finds IC50 data, which are given here for ten compounds.

The target in assay [1] is T1, GST-tagged truncated LRRK2 (Homo sapiens, UniProt Q5S007).
T1 construct: GST-tagged truncated LRRK2 from Invitrogen (Cat # PV4874); GST; purchased Invitrogen PV4874
In words: LRRK2 Assay, Format 2 (Lantha Screen), WT. It counts as biochemical. The conditions noted are these: geometric mean of 2-4 determinations unless otherwise indicated (a: >=5; b: single determination). As to the method: (§1) LRRK2 kinase activity was measured using Lantha Screen technology from Invitrogen. GST-tagged truncated LRRK2 from Invitrogen (Cat # PV4874) was incubated with a fluorescein-labeled peptide substrate based upon ezrin/radixin/moesin (ERM), also known as LRRKtide (Invitrogen cat # PR8976A), in the presence of a dose response of compound. Upon completion, the assay was stopped and detected with a terbium labeled anti-phospho-ERM antibody (Invitrogen, cat # PR8975A). […] Using Echo acoustic dispensing, 60 nL of compound was transferred to a low volume Corning 384-well assay plate. 3 μL of a working solution of substrate (200 nM LRRKtide, […]) prepared in assay buffer (50 mM HEPES, pH 7.5, 3 mM MgCl2, with 2 mM DTT and 0.01% Brij35 added fresh) was added to the 60 nL compound assay plate. The kinase reaction was started with […] of a working solution of LRRK2 enzyme at a concentration of […]. The final reaction concentrations were 100 nM LRRKtide, […], […] LRRK2 enzyme and a compound dose response with a top dose of 3 mM. The reaction was allowed to progress at room temperature for 30 minutes and then stopped with the addition of […] of detection buffer (20 mM Tris pH 7.6, 0.01% NP-40, 6 mM EDTA with 2 nM terbium labeled anti-phospho-ERM). After an incubation of 1 hour at room temperature, the plate was read on an Envision with an excitation wavelength of 340 nm and a reading emission at both 520 nm and 495 nm. The ratio of the 520 nm and 495 nm emission was used to analyze the data. Inhibition of mutant G2019S LRRK2 (Invitrogen cat # PV4881) was measured in the exact same method. All final concentrations of substrate ATP and enzyme were the same.

Assay [2] concerns the target mutant G2019S LRRK2 (Homo sapiens, UniProt Q5S007, G2019S). Description: LRRK2 Assay, Format 2 (Lantha Screen), G2019S mutant. It counts as biochemical. Further details: purchased Invitrogen PV4881. The conditions noted are these: geometric mean of 2-4 determinations unless otherwise indicated (a: >=5; b: single determination); read-out: LRRK2, Format 2 G2019S IC50. As to the method: as §1

Where a name gives a salt, the structure may show the parent alone.

mutant G2019S LRRK2, sequence (Q5S007 970-2527 G2019S limits assumed): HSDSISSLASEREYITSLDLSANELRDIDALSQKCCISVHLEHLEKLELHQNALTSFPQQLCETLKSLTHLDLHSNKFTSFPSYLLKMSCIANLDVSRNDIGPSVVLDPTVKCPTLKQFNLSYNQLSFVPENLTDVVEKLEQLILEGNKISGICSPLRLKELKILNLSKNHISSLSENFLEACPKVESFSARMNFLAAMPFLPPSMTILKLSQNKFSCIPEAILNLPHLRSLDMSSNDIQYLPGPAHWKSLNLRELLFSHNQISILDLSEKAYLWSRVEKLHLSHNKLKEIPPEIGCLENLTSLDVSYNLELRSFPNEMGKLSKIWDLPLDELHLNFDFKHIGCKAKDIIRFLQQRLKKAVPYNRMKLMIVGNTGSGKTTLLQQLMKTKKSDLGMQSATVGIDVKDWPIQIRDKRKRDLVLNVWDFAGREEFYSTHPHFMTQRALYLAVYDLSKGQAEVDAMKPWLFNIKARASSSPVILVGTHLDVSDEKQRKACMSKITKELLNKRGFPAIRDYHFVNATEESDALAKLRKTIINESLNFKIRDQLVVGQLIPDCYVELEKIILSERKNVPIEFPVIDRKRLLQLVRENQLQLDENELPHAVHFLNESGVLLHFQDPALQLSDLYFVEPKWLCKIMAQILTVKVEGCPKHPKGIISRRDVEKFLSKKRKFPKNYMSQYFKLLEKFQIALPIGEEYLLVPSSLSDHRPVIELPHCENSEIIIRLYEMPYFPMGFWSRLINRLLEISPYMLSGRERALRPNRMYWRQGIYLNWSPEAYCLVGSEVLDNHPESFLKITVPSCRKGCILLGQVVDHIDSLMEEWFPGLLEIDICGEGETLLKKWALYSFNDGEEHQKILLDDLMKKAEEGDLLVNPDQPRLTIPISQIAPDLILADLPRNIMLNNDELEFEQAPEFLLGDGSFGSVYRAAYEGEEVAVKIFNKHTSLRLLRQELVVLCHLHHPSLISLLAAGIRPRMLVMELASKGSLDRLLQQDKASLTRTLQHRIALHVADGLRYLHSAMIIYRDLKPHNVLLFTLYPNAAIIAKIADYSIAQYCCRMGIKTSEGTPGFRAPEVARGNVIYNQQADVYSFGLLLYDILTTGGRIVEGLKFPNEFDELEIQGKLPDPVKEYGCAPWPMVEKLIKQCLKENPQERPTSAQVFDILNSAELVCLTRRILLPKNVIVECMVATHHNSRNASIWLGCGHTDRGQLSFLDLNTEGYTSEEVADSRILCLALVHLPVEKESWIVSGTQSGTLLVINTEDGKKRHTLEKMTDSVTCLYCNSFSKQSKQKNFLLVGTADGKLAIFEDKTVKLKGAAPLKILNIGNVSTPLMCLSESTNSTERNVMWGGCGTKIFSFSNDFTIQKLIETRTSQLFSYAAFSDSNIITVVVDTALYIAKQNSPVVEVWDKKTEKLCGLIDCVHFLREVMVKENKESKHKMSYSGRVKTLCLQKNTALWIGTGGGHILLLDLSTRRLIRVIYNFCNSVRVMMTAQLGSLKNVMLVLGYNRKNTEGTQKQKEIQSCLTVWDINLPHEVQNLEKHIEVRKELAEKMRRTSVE
T1 sequence (Q5S007 970-2527 limits assumed): as the sequence (Q5S007 970-2527 G2019S limits assumed) above, with S1050G counted along it

As for `Cc1cnn(Cc2nc3cnc4ccc(Cl)cc4c3n2[C@@H]2CCO[C@H](C)C2)n1` [Example 103, 8-Chloro-1-[(2R,4R)-2-methyltetrahydro-2H-pyran-4-yl]-2-[(4-methyl-2H-1,2,3-triazol-2-yl)methyl]-1H-imidazo[4,5-c]quinoline], the figures for the IC50 in assay [1] and in assay [2] were 11.2 nM and 10.6 nM, respectively.
In the case of `C[C@@H]1C[C@H](n2c(CC#N)nc3cnc4ccc(C#N)cc4c32)CCO1` [Example 117, 2-(cyanomethyl)-1-[(2R,4R)-2-methyltetrahydro-2H-pyran-4-yl]-1H-imidazo[4,5-c]quinoline-8-carbonitrile], the IC50 in assay [1] came to 16.8 nM; in assay [2], 19.6 nM.
Taken in the same sequence, the figures for `C[C@@H]1C[C@H](n2c(Cc3cc(C(F)(F)F)on3)nc3cnc4ccc(C#N)cc4c32)CCO1` [Example 119, 1-[(2R,4R)-2-methyltetrahydro-2H-pyran-4-yl]-2-{[5-(trifluoromethyl)-1,2-oxazol-3-yl]methyl}-1H-imidazo[4,5-c]quinoline-8-carbonitrile] were 7.53 nM and 8.21 nM.
With `C[C@@H]1C[C@H](n2c(Cn3cncn3)nc3cnc4ccc(C#N)cc4c32)CCO1` [Example 120, 1-[(2R,4R)-2-methyltetrahydro-2H-pyran-4-yl]-2-(1H-1,2,4-triazol-1-ylmethyl)-1H-imidazo[4,5-c]quinoline-8-carbonitrile, formate salt], the values for the IC50 in assay [1] and in assay [2] were 5.74 nM and 5.07 nM, respectively.
On to `C[C@@H]1C[C@H](n2c(Cn3cccn3)nc3cnc4ccc(C#N)cc4c32)CCO1` [Example 121, 1-[(2R,4R)-2-methyltetrahydro-2H-pyran-4-yl]-2-(1H-pyrazol-1-ylmethyl)-1H-imidazo[4,5-c]quinoline-8-carbonitrile, formate salt], for which the IC50 in assay [1] turned out to be 6.19 nM; in assay [2], 5.61 nM.
On to `C[C@@H]1C[C@H](n2c(Cc3coc(C4CC4)n3)nc3cnc4ccc(C#N)cc4c32)CCO1` [Example 122, 2-[(2-cyclopropyl-1,3-oxazol-4-yl)methyl]-1-[(2R,4R)-2-methyltetrahydro-2H-pyran-4-yl]-1H-imidazo[4,5-c]quinoline-8-carbonitrile, formate salt], for which the values for the IC50 in assay [1] and in assay [2] were 4.3 nM and 3.7 nM, respectively.
Taken in the same sequence, the figures for `Cc1nc(Cc2nc3cnc4ccc(C#N)cc4c3n2[C@@H]2CCO[C@H](C)C2)no1` [Example 123, 2-[(5-methyl-1,2,4-oxadiazol-3-yl)methyl]-1-[(2R,4R)-2-methyltetrahydro-2H-pyran-4-yl]-1H-imidazo[4,5-c]quinoline-8-carbonitrile] were 9.25 nM and 8.91 nM.
For `C[C@@H]1C[C@H](n2c(Cn3cnnn3)nc3cnc4ccc(C#N)cc4c32)CCO1` [Example 124, 1-[(2R,4R)-2-methyltetrahydro-2H-pyran-4-yl]-2-(1H-tetrazol-1-ylmethyl)-1H-imidazo[4,5-c]quinoline-8-carbonitrile, formate salt], in that order: 6.22 nM and 5.33 nM.
Consider `C[C@@H]1C[C@H](n2c(Cn3cc(C4CC4)nn3)nc3cnc4ccc(C#N)cc4c32)CCO1` [Example 125, 2-[(4-cyclopropyl-1H-1,2,3-triazol-1-yl)methyl]-1-[(2R,4R)-2-methyltetrahydro-2H-pyran-4-yl]-1H-imidazo[4,5-c]quinoline-8-carbonitrile, formate salt], for which the IC50 in assay [1] is 7 nM; in assay [2], 6.19 nM.
With `CC(C)c1cn(Cc2nc3cnc4ccc(C#N)cc4c3n2[C@@H]2CCO[C@H](C)C2)nn1` [Example 126, 1-[(2R,4R)-2-methyltetrahydro-2H-pyran-4-yl]-2-{[4-(propan-2-yl)-1H-1,2,3-triazol-1-yl]methyl}-1H-imidazo[4,5-c]quinoline-8-carbonitrile, formate salt], the IC50 in assay [1] came out at 8.39 nM; in assay [2] it was 8.04 nM.

By IC50 is commonly meant the midpoint of a concentration-inhibition curve.
